Tests used:
hSERT L565A [1] = target: T1, hSERT L565A (Homo sapiens, UniProt P31645, L565A); assay: ASP^+ binding, hSERT L565A; conditions: S2 site mutant, read-out: SYR IC50 for Binding
T1 construct: forward and reverse primers were used to amplify a full-length hSERT; expressed in transfected cells; host or cells: HeLa

SERT S277C/X5C = assay: Cysteine accessibility, cytoplasmic pathway: MTSEA reactivity with S277C/X5C; format: cell-based; conditions: 10 μM ligand, digitonin-permeabilized cells, compared with the control
hSERT E494Q [2] = target: T2, hSERT E494Q (Homo sapiens, UniProt P31645, E494Q); assay: APP^+ uptake, hSERT E494Q; format: cell-based; conditions: S2 site mutant, read-out: SYR IC50 for Transport
T2 construct: forward and reverse primers were used to amplify a full-length hSERT; expressed in transfected cells; host or cells: HeLa cells, transient, pcDNA3.1

hSERT I327A = target: T3, hSERT I327A (Homo sapiens, UniProt P31645, I327A); assay: ASP^+ binding, hSERT I327A; conditions: S2 site mutant, read-out: SYR IC50 for Binding
T3 construct: forward and reverse primers were used to amplify a full-length hSERT; expressed in transfected cells; host or cells: HeLa cells, transient, pcDNA3.1

hSERT E494Q [3] = target: T2, hSERT E494Q; assay: ASP^+ binding, hSERT E494Q; conditions: S2 site mutant, read-out: SYR IC50 for Binding
hSERT Y95F = target: T4, hSERT Y95F (Homo sapiens, UniProt P31645, Y95F); assay: ASP^+ binding, hSERT Y95F; conditions: S1 site mutant, read-out: SYR IC50 for Binding
T4 construct: forward and reverse primers were used to amplify a full-length hSERT; expressed in transfected cells; host or cells: HeLa

hSERT P499G = target: T5, hSERT P499G (Homo sapiens, UniProt P31645, P499G); assay: ASP^+ binding, hSERT P499G; conditions: S2 site mutant, read-out: SYR IC50 for Binding
T5 construct: forward and reverse primers were used to amplify a full-length hSERT; expressed in transfected cells; host or cells: HeLa cells, transient, pcDNA3.1

hSERT T497A = target: T6, hSERT T497A (Homo sapiens, UniProt P31645, T497A); assay: ASP^+ binding, hSERT T497A; conditions: S2 site mutant, read-out: SYR IC50 for Binding
T6 construct: forward and reverse primers were used to amplify a full-length hSERT; expressed in transfected cells; host or cells: HeLa cells, transient, pcDNA3.1

hSERT F556A = target: T7, hSERT F556A (Homo sapiens, UniProt P31645, F556A); assay: APP^+ uptake, hSERT F556A; format: cell-based; conditions: S2 site mutant, read-out: SYR IC50 for Transport
T7 construct: forward and reverse primers were used to amplify a full-length hSERT; expressed in transfected cells; host or cells: HeLa cells, transient, pcDNA3.1

hSERT L565A [4] = target: T1, hSERT L565A; assay: APP^+ uptake, hSERT L565A; format: cell-based; conditions: S2 site mutant, read-out: SYR IC50 for Transport
hSERT R564A = target: T8, hSERT R564A (Homo sapiens, UniProt P31645, R564A); assay: APP^+ uptake, hSERT R564A; format: cell-based; conditions: S2 site mutant, read-out: SYR IC50 for Transport
T8 construct: forward and reverse primers were used to amplify a full-length hSERT; expressed in transfected cells; host or cells: HeLa

hSERT T583A = target: T9, hSERT T583A (Homo sapiens, UniProt P31645, T583A); assay: APP^+ uptake, hSERT T583A; format: cell-based; conditions: S2 site mutant, read-out: SYR IC50 for Transport
T9 construct: forward and reverse primers were used to amplify a full-length hSERT; expressed in transfected cells; host or cells: HeLa

[5] = tested on: BDNF, PSD-95, GluA1, and vGluT1; assay: Immunoblot of synaptic proteins in mPFC of CUMS mice; format: in vivo, mouse; conditions: SYR administration
Procedure: Figure 7 SYR effects on the expression of c-Fos and synaptic proteins in mPFC. (A) Representative immunohistochemical images of c-Fos expression in mPFC under the indicated treatments. Immunohistochemistry of c-Fos was performed with mPFC slices as described in Section 4. The slices were re-probed with anti-DAPI antibody. Immunofluorescence images for c-Fos (green) and DAPI (blue) were acquired by confocal microscopy. (B) Quantitative analysis for c-Fos expression in mPFC with various treatments. Protein expression is expressed as a percentage of c-Fos fluorescence measured in the control group. Bars represent the mean ± SEM (n = 4). * p < 0.05, ** p < 0.01 compared with the control or CUMS group by one-way ANOVA followed by post hoc tests, respectively. […] (D–G) Quantification of the expression of the synaptic proteins BDNF (D), PSD-95 (E), GluA1 (F), and vGluT1 (G). The expression level is expressed as a percentage of the integrated density obtained from the control group. […]
Synaptic proteins were extracted from mPFC or hippocampus tissues using RIPA lysis buffer, respectively. Expression of the indicated proteins under various treatments was then analyzed by immunoblotting, as previously reported. […] Quantification of immunoreactive protein bands was performed using Image J v1.53u, and GAPDH was used as an internal reference to normalize expression levels of those proteins, respectively.

[6] = tested on: hSERT S1 mutants (Y95F, I172F, S438T); assay: APP^+ uptake, S1 site mutants compared with WT; format: cell-based, human
Procedure: HeLa cells were cultured in Dulbecco’s Modified Eagle’s Medium supplemented with 10% fetal bovine serum, 100 units/mL penicillin, and 100 μg/mL streptomycin at 37 °C in a humidified 5% CO2 incubator. Cells grown at ~70% confluence in a 6 cm culture dish were transfected with hSERT cDNA in pcDNA3.1 by lipofectamine 2000. Transfected cells were incubated for 12 h at 37 °C with 5% CO2 and then transferred into 96-well plates. After being grown for an additional 12–16 h, the cells were then assayed for APP^+ uptake or ASP^+ binding.
Measurement of transport or ligand binding activity of SERT was performed by using its fluorescent substrate (APP^+) or ligand (ASP^+), respectively. The cells transiently expressing WT or mutants of hSERT were applied for various treatments. Briefly, the cells were washed twice with 100 μL KRH buffer containing 20 mM HEPES (Neofroxx, Einhausen, Germany), pH 7.4, 120 mM NaCl, 1.3 mM KCl, 2.2 mM CaCl2, 1.2 mM MgSO4, and 0.1% (w/v) glucose. APP^+ uptake was measured by adding 100 μL KRH buffer containing 2 μM APP^+ and incubating for 5 min at 22 °C. Excess APP^+ was then removed by 3× rapid washing with 100 μL KRH buffer each time. The extent of APP^+ accumulated in the cells was determined by fluorescence spectrometry with an Infinite 200 Pro microplate reader (Tecan, Männedorf, Switzerland). […]

hSERT Y579A = target: T10, hSERT Y579A (Homo sapiens, UniProt P31645, Y579A); assay: APP^+ uptake, hSERT Y579A; format: cell-based; conditions: S2 site mutant, read-out: SYR IC50 for Transport
T10 construct: forward and reverse primers were used to amplify a full-length hSERT; expressed in transfected cells; host or cells: HeLa

T1 sequence (P31645 whole entry L565A): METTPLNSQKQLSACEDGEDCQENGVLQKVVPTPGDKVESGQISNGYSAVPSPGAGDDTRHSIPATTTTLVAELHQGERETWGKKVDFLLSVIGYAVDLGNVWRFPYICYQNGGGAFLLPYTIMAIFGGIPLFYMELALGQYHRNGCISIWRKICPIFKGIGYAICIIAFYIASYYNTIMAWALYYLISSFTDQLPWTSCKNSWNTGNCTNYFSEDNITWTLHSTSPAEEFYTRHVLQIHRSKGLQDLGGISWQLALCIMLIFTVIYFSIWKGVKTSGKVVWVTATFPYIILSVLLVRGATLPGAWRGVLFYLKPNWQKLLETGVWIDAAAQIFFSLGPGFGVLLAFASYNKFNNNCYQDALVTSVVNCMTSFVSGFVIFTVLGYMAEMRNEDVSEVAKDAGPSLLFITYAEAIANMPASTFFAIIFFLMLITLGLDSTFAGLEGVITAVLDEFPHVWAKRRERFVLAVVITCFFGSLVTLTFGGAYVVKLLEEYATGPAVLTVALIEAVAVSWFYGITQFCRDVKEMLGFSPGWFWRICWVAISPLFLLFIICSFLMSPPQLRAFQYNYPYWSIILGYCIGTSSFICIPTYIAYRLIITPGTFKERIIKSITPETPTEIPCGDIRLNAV
T2 sequence (P31645 whole entry E494Q): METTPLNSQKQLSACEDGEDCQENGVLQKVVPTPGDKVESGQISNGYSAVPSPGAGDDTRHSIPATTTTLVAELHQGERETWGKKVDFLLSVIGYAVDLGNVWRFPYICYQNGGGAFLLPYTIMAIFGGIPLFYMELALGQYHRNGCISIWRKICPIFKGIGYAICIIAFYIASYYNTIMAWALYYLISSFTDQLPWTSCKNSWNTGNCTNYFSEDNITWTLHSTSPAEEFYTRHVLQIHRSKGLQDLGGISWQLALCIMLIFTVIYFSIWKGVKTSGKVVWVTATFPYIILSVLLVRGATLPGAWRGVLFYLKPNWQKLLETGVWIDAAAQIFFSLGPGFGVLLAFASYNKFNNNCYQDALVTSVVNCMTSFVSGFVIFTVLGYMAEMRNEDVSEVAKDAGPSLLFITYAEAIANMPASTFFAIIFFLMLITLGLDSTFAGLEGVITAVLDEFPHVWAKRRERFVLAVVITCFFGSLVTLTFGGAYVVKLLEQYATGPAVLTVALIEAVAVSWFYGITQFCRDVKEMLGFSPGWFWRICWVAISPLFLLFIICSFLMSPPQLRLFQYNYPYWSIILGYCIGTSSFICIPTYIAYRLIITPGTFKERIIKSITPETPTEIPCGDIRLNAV
T3 sequence (P31645 whole entry I327A): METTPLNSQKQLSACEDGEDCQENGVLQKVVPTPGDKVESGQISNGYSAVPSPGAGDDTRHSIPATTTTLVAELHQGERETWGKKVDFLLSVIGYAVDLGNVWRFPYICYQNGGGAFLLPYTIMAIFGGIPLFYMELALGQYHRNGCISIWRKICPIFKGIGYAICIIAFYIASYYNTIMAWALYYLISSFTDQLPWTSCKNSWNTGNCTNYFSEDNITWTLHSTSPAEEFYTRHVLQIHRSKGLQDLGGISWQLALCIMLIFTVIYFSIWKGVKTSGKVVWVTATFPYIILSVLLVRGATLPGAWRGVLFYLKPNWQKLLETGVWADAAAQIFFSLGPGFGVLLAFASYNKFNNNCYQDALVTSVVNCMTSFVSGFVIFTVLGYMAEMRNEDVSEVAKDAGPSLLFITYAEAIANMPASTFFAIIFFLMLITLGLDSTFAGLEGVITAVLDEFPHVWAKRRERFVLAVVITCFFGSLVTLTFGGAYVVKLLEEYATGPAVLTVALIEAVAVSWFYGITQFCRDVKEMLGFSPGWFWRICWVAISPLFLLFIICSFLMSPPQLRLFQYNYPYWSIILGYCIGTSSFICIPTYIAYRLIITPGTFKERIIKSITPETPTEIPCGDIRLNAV
T4 sequence (P31645 whole entry Y95F): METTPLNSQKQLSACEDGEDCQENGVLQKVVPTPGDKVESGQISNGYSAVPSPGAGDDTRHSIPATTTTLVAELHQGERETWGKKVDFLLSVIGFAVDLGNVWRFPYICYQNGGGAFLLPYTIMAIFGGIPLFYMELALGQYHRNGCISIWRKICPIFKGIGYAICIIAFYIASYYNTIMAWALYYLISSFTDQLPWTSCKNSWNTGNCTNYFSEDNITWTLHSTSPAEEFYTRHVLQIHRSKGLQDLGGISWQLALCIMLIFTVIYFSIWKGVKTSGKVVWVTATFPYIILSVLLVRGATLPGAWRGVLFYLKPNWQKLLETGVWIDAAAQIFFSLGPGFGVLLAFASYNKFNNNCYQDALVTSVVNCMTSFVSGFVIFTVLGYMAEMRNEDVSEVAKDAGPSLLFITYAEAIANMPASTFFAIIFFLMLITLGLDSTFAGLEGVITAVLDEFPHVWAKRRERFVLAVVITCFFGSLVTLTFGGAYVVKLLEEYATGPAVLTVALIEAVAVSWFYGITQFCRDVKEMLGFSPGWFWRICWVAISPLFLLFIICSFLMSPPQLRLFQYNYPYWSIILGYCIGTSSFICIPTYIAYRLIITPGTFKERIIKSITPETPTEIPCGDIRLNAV
T5 sequence (P31645 whole entry P499G): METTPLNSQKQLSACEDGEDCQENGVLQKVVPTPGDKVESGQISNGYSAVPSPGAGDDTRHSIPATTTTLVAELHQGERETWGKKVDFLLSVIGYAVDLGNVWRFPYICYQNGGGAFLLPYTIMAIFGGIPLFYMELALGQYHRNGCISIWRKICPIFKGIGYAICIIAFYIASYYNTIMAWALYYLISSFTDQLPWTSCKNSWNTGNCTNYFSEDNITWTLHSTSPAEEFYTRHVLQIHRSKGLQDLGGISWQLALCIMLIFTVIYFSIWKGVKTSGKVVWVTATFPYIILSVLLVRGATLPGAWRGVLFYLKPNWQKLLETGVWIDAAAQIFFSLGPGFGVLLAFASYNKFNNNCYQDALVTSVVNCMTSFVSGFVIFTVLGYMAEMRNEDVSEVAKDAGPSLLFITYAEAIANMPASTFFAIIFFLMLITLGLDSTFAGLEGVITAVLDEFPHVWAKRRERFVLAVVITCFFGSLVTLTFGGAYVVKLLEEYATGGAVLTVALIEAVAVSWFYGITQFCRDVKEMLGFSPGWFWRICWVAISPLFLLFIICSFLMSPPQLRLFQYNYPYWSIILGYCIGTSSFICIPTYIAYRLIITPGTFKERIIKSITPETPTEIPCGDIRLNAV
T7 sequence (P31645 whole entry F556A): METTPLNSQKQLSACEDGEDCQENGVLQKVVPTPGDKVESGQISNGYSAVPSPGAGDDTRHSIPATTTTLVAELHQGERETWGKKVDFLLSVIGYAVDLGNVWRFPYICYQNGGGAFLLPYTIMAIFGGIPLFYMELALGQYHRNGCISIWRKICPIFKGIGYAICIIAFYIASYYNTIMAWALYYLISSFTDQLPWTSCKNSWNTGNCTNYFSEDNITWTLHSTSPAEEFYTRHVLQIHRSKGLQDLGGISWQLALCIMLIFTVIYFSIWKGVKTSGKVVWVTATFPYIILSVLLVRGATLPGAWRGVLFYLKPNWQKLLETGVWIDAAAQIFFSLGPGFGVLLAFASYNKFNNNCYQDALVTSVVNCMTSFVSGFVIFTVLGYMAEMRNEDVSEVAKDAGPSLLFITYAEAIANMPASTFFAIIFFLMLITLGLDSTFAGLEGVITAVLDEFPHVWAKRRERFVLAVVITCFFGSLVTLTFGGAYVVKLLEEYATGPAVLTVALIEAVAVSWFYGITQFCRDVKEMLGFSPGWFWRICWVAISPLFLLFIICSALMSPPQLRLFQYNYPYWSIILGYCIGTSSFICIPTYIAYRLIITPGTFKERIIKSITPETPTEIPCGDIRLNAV
T9 sequence (P31645 whole entry T583A): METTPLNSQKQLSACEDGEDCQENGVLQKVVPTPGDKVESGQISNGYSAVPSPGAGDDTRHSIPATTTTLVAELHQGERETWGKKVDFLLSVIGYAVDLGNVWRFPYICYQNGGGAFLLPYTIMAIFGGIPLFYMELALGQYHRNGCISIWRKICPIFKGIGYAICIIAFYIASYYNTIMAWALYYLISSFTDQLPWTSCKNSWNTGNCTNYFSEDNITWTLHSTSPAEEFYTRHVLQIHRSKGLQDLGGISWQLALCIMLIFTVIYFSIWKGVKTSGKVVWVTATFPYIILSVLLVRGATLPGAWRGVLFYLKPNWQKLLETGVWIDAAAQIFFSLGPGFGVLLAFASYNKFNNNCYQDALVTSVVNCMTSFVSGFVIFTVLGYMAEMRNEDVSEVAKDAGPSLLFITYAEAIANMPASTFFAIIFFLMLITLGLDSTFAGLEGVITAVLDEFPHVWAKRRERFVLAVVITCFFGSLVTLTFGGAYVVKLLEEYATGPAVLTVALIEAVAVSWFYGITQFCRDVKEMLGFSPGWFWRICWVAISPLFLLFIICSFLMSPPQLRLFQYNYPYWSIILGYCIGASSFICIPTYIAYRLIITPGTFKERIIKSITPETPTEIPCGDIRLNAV
T6 sequence (P31645 whole entry T497A): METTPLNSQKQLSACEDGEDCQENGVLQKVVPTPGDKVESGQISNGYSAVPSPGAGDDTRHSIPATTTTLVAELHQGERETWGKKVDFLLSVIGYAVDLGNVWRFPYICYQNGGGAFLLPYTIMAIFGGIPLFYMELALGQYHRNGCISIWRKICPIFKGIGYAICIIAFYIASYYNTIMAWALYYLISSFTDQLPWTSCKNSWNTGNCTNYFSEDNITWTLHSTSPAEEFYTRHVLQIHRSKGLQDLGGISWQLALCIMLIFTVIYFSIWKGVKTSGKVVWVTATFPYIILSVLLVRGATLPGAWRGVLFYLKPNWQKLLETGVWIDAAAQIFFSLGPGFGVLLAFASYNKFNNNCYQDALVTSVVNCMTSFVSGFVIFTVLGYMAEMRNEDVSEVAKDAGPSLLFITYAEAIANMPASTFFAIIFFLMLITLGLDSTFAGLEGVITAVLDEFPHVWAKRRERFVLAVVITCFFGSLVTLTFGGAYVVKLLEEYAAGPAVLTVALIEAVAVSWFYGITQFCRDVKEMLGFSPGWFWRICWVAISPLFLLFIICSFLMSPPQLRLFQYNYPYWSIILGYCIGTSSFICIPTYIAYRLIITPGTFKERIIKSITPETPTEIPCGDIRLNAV

Compound: COc1cc([C@@H]2OC[C@@H]3[C@H]2CO[C@H]3c2cc(OC)c(O)c(OC)c2)cc(OC)c1O [SYR, (-)-syringaresinol]
- IC50 (hSERT L565A [1]): 21 ± 0.45 µM
- rate constant of MTSEA reactivity with S277C/X5C (SERT S277C/X5C): decreased
- IC50 (hSERT E494Q [2]): 12 ± 2.17 µM
- IC50 (hSERT I327A): 53.2 ± 7.01 µM
- IC50 (hSERT E494Q [3]): 9.77 ± 0.78 µM
- IC50 (hSERT Y95F): 1.21 ± 0.01 µM
- IC50 (hSERT P499G): 46.8 ± 2.35 µM
- IC50 (hSERT T497A): 43.7 ± 2.6 µM
- IC50 (hSERT F556A): 7.39 ± 1.12 µM
- IC50 (hSERT L565A [4]): 9.98 ± 1.22 µM
- IC50 (hSERT R564A): 14.6 ± 1.59 µM
- IC50 (hSERT T583A): 8.68 ± 1.4 µM
- CUMS-induced reduction in expression of synaptic proteins BDNF, PSD-95, GluA1, vGluT1 in mPFC [5]: attenuated
- SYR IC50 for APP^+ uptake relative to WT [6]: 3- to 10 fold
- IC50 (hSERT Y579A): 16.3 ± 1.06 µM
